Measurements as given in US7880007B2, “Bicyclic substituted phenyl piperidine modulators of muscarinic receptors” (Vertex Pharmaceuticals Incorporated, priority 2004, dated 2011).

Key:
Assay type in all cases: cell-based
[1] = biological target: T1, M1 muscarinic receptor (Homo sapiens, UniProt P11229); assay: Functional mobilization of intracellular calcium (FLIPR), M1-CHO cells; details: for Emax: 100% efficacy = maximum response obtained with the Carbachol control; for M1 Activity: M1-CHO cells, calcium mobilization (FLIPR)
T1 construct: expressed in transfected cells; host or cells: CHO (M1-CHO)
T1 sequence (P11229 1-460): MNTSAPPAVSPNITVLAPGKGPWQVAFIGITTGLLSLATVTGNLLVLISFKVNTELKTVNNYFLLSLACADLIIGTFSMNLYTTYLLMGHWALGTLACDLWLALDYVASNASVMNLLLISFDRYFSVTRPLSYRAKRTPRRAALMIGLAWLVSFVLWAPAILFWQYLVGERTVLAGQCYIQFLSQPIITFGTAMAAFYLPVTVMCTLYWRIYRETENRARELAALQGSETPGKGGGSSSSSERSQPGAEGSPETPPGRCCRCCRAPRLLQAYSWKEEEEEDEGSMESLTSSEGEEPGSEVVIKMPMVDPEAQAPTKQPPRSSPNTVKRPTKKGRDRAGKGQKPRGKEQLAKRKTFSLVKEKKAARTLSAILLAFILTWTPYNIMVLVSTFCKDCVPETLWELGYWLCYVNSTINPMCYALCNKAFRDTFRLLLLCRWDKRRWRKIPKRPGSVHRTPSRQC
Outline: (§1)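 Calcium mobilisation read by FLIPR over 60 s (ex 488/em 540 nm) in recombinant muscarinic CHO lines loaded with calcium dye plus 1 mM probenecid. Compounds tested as agonists alone, or as inhibitors against EC80 carbachol after 15 min pre-incubation or co-addition; 0.5% DMSO; efficacy scaled to carbachol maximal response.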

[2] = biological target: T2, M4 muscarinic receptor (Homo sapiens, UniProt P08173); assay: Functional mobilization of intracellular calcium (FLIPR), M4-CHO cells; details: for Emax: 100% efficacy = maximum response obtained with the Carbachol control; for M4 Activity: M4-CHO cells, calcium mobilization (FLIPR)
T2 construct: expressed in transfected cells; host or cells: CHO (M4-CHO)
T2 sequence (P08173 1-479): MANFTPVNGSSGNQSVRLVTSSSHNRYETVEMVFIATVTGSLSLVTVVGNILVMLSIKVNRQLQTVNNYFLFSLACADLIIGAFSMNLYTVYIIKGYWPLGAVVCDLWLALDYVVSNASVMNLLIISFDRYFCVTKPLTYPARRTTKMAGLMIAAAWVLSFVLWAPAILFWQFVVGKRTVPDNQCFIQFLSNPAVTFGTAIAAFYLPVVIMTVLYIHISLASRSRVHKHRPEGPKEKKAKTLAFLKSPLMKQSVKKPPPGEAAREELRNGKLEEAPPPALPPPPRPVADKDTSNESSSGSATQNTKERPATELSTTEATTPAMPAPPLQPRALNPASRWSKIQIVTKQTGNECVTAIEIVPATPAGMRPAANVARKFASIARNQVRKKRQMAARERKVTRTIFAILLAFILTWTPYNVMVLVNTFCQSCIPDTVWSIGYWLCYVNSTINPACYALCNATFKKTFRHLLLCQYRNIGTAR
Outline: as §1

[3] = biological target: T3, M2 muscarinic receptor (Homo sapiens, UniProt P08172); assay: Functional mobilization of intracellular calcium (FLIPR), M2-CHO cells; details: for Emax: 100% efficacy = maximum response obtained with the Carbachol control; for M2 Activity: M2-CHO cells, calcium mobilization (FLIPR)
T3 construct: expressed in transfected cells; host or cells: CHO (M2-CHO)
T3 sequence (P08172 1-466): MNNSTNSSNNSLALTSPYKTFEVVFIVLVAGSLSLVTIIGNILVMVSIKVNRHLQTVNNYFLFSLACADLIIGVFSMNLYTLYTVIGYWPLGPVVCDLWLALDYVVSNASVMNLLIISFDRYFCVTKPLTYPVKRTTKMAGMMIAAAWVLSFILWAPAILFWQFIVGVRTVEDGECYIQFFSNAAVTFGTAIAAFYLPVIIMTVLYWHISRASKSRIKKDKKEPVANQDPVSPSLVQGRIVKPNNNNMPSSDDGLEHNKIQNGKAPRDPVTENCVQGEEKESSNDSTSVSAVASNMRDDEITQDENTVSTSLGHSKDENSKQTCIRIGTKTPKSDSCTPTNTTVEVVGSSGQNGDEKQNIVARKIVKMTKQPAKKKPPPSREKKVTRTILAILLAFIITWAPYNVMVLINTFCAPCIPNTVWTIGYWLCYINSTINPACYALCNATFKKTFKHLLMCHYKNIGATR
Outline: as §1

[4] = biological target: T4, M3 muscarinic receptor (Homo sapiens, UniProt P20309); assay: Functional mobilization of intracellular calcium (FLIPR), M3-CHO cells; details: for Emax: 100% efficacy = maximum response obtained with the Carbachol control; for M3 Activity: M3-CHO cells, calcium mobilization (FLIPR)
T4 construct: expressed in transfected cells; host or cells: CHO (M3-CHO)
Outline: as §1

T4 sequence (P20309 whole entry): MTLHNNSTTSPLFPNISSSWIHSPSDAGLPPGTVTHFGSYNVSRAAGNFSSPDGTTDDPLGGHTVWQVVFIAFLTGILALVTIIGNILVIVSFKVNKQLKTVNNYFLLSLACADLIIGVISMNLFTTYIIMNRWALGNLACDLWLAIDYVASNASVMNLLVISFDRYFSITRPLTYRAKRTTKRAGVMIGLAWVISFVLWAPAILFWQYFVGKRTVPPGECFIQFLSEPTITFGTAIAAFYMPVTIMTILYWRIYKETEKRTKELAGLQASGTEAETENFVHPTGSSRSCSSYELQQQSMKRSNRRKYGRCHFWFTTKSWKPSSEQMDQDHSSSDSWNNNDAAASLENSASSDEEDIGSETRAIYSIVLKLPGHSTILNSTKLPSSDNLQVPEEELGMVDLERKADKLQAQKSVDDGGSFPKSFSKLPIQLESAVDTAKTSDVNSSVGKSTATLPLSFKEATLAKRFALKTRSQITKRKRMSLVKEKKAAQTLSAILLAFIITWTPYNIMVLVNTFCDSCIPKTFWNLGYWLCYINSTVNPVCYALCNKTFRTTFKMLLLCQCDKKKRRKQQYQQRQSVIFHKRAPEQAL

| SMILES | Emax [1] [%] | M1 Activity [1] | Emax [2] [%] | M4 Activity [2] | Emax [3] [%] | M2 Activity [3] | Emax [4] [%] | M3 Activity [4] |
| --- | --- | --- | --- | --- | --- | --- | --- | --- |
| COc1ccc(-c2ccccc2F)cc1C1CCN([C@H]2C[C@H]3CC[C@H]2C3)CC1 [Compound 216] | < 25 | + (activity was measured to be greater than 5.0 μM) | 25 to 100 | + (activity was measured to be greater than 5.0 μM) | < 25 | + (activity was measured to be greater than 5.0 μM) | < 25 | + (activity was measured to be greater than 5.0 μM) |
| CCOC(=O)N1CCC(CN2CCC(c3cccc4c3OCO4)CC2)CC1 [Compound 217] | 25 to 100 | +++ (activity was measured to be less than 1.0 μM) | 25 to 100 | +++ (activity was measured to be less than 1.0 μM) | < 25 | + (activity was measured to be greater than 5.0 μM) | < 25 | ++ (activity was measured to be from 1.0 μM to 5.0 μM) |
| CCOC(=O)N1C2CCC1CC(N1CCC(F)(c3cc(Cl)ccc3OC)CC1)C2 (stereo not drawn) [Compound 219, 4-(5-chloro-2-methoxyphenyl)-4-fluoropiperidine tropane ethyl carbamate] | 25 to 100 | +++ (activity was measured to be less than 1.0 μM) | 25 to 100 | +++ (activity was measured to be less than 1.0 μM) | < 25 | + (activity was measured to be greater than 5.0 μM) | < 25 | + (activity was measured to be greater than 5.0 μM) |
| COc1ccccc1C1CCN(C2CCC3CCC2C3)CC1 (stereo not drawn) [Compound 221] | 25 to 100 | + (activity was measured to be greater than 5.0 μM) | 25 to 100 | +++ (activity was measured to be less than 1.0 μM) | < 25 | + (activity was measured to be greater than 5.0 μM) | < 25 | + (activity was measured to be greater than 5.0 μM) |
| COc1ccc(C#CCC(C)C)cc1C1CCN([C@H]2C[C@H]3CC[C@H]2C3)CC1 [Compound 223] | < 25 | + (activity was measured to be greater than 5.0 μM) | 25 to 100 | + (activity was measured to be greater than 5.0 μM) | < 25 | + (activity was measured to be greater than 5.0 μM) | < 25 | + (activity was measured to be greater than 5.0 μM) |
| COc1ccccc1C1CCN(C2CCCCCC2)CC1 [Compound 224] | 25 to 100 | + (activity was measured to be greater than 5.0 μM) | 25 to 100 | +++ (activity was measured to be less than 1.0 μM) | < 25 | + (activity was measured to be greater than 5.0 μM) | < 25 | + (activity was measured to be greater than 5.0 μM) |
| Cc1cccc(C2CCN(C3C[C@H]4CC[C@H]3C4)CC2)c1C (stereo partly drawn) [Compound 225] | 25 to 100 | + (activity was measured to be greater than 5.0 μM) | 25 to 100 | ++ (activity was measured to be from 1.0 μM to 5.0 μM) | < 25 | + (activity was measured to be greater than 5.0 μM) | < 25 | + (activity was measured to be greater than 5.0 μM) |
| CCOC(=O)N1C2CCC1CC(N1CCC(c3cc(-c4ccc(C(=O)NC)c(Cl)c4)ccc3OC)CC1)C2 (stereo not drawn) [Compound 226] | < 25 | + (activity was measured to be greater than 5.0 μM) | 25 to 100 | ++ (activity was measured to be from 1.0 μM to 5.0 μM) | < 25 | + (activity was measured to be greater than 5.0 μM) | < 25 | + (activity was measured to be greater than 5.0 μM) |
| COc1cc(F)c(F)cc1C1CCN([C@H]2C[C@H]3CC[C@H]2C3)CC1 [Compound 227] | 25 to 100 | + (activity was measured to be greater than 5.0 μM) | 25 to 100 | ++ (activity was measured to be from 1.0 μM to 5.0 μM) | < 25 | + (activity was measured to be greater than 5.0 μM) | < 25 | + (activity was measured to be greater than 5.0 μM) |
| COc1ccc(C(=O)c2ccsc2)cc1C1CCN([C@H]2C[C@H]3CC[C@H]2C3)CC1 [Compound 230] | < 25 | + (activity was measured to be greater than 5.0 μM) | 25 to 100 | +++ (activity was measured to be less than 1.0 μM) | < 25 | + (activity was measured to be greater than 5.0 μM) | < 25 | + (activity was measured to be greater than 5.0 μM) |
| COc1ccc(F)cc1C1(O)CCN(CC2CCOCC2)CC1 [Compound 231] | < 25 | + (activity was measured to be greater than 5.0 μM) | < 25 | + (activity was measured to be greater than 5.0 μM) | < 25 | + (activity was measured to be greater than 5.0 μM) | < 25 | + (activity was measured to be greater than 5.0 μM) |
| COc1ccccc1C1CCN(CC2CCCC2)CC1 [Compound 232] | 25 to 100 | + (activity was measured to be greater than 5.0 μM) | 25 to 100 | ++ (activity was measured to be from 1.0 μM to 5.0 μM) | < 25 | + (activity was measured to be greater than 5.0 μM) | < 25 | + (activity was measured to be greater than 5.0 μM) |
| COc1ccccc1C1CCN(CC2CCOCC2)CC1 [Compound 233] | 25 to 100 | + (activity was measured to be greater than 5.0 μM) | 25 to 100 | ++ (activity was measured to be from 1.0 μM to 5.0 μM) | < 25 | + (activity was measured to be greater than 5.0 μM) | < 25 | + (activity was measured to be greater than 5.0 μM) |
| COc1ccccc1C1CCN(C2CCC(c3ccccc3)CC2)CC1 (stereo not drawn) [Compound 234] | < 25 | + (activity was measured to be greater than 5.0 μM) | < 25 | + (activity was measured to be greater than 5.0 μM) | < 25 | + (activity was measured to be greater than 5.0 μM) | < 25 | + (activity was measured to be greater than 5.0 μM) |
| COc1ccccc1C1CCN(C2CCOCC2)CC1O (stereo not drawn) [Compound 235] | 25 to 100 | + (activity was measured to be greater than 5.0 μM) | 25 to 100 | + (activity was measured to be greater than 5.0 μM) | < 25 | + (activity was measured to be greater than 5.0 μM) | < 25 | + (activity was measured to be greater than 5.0 μM) |
